The results in this text go back to article PMC3733398 (ACS medicinal chemistry letters, 2013).

In data set [1] the test system is DS-Mtb1 (drug sensitive clinical isolate #1). The experiment in a line: MIC against clinical strain DS-Mtb1. In kind it is cell-based. The note with it: Mycobacterium tuberculosis.
For data set [2], the system named is DS-Mtb2 (drug sensitive clinical isolate #2). The experiment in a line: MIC against clinical strain DS-Mtb2. In kind it is cell-based. The note with it: Mycobacterium tuberculosis, 90% growth inhibition by optical density.
For data set [3], the system named is MDR-Mtb HREZSKP. The experiment in a line: microbe, parasite or virus in culture. In kind it is cell-based. The note with it: Mycobacterium tuberculosis.
The subject of data set [4] is MDR-Mtb HREKP. The data set is described as follows: microbe, parasite or virus in culture. The note with it: Mycobacterium tuberculosis. The data set is classed as cell-based.
Data set [5] has as its system MDR-Mtb HRERb. The experiment in a line: microbe, parasite or virus in culture. The data set is classed as cell-based. The following applies: Mycobacterium tuberculosis.
Data set [6] deals with XDR-Mtb HRESKO. The data set is described as follows: microbe, parasite or virus in culture. In kind it is cell-based. The note with it: Mycobacterium tuberculosis.
In data set [7] the test system is XDR-Mtb HREKO. The experiment in a line: microbe, parasite or virus in culture. The data set is classed as cell-based. The following applies: Mycobacterium tuberculosis.
Data set [8] deals with Mtb H37Rv. The data set is described as follows: MIC against replicating Mtb H37Rv, dual read-out. In kind it is cell-based. The note with it: Mycobacterium tuberculosis.
For data set [9], the system named is sensitive, MDR and XDR clinical Mtb strains. The data set is classed as cell-based, Mycobacterium tuberculosis. The following applies: range over the DS, MDR and XDR clinical strains of Table 2.
Data set [10] deals with T1, CYP3A4 (Homo sapiens, UniProt P08684). The data set is described as follows: Time dependent inhibition of human CYP3A4. The following applies: at 10 μM.
T1 sequence (P08684 whole entry): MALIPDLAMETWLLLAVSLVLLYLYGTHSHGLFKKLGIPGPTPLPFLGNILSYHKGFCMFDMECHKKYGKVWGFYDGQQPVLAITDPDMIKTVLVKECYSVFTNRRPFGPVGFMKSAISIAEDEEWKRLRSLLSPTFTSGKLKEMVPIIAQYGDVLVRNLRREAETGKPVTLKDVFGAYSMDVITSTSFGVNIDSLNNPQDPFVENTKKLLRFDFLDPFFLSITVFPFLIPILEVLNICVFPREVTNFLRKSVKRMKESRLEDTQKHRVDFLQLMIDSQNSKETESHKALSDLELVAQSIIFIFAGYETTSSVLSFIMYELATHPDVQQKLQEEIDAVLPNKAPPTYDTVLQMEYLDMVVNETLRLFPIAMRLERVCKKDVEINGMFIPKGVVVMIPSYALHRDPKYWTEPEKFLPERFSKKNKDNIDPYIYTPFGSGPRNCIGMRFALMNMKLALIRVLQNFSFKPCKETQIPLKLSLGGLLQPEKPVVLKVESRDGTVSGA
A short description of data set [11]: in vivo. The following applies: rat, iv, 1 mg/kg.
A short description of data set [12]: in vitro. The data set is classed as in vitro ADME.
For data set [13] the following is noted: rat, microsomes.
The target in data set [14] is T1, CYP3A4. The data set is described as follows: Human cytochrome P-450 inhibition, CYP 3A4. The note with it: panel of human cytochrome P-450 enzymes.

In general, clearance refers to the volume of plasma or blood freed of the substance per unit of time. Lower therefore signals inefficient removal. In general, fraction unbound refers to free concentration divided by total concentration. Read a low fraction unbound as extensive binding. One may read the inhibition as how much of the control response was suppressed. Higher therefore signals strong suppression.

Values after ≈ are worked out from the molar mass of the structure shown. Values joined by “and” are separate entries in the source; they are usually repeats but may differ in a detail not shown here. Equal entries are not always repeated. A value given as a limit tells only on which side of the number the result lay.

As to `Cc1ccc2nc(C)c(C(=O)NCc3ccccc3)n2c1` [Compound 9], the MIC is 0.04 µM to 0.07 µM and 0.01 µg/mL to 0.02 µg/mL in data set [1]; < 0.01 µg/mL in [2]; < 0.01 µg/mL in data set [3]; < 0.01 µg/mL in data set [4]; 0.63 µg/mL (≈ 2.26 µM) in data set [5]; < 0.01 µg/mL in data set [6]. For the same compound, the MIC in [7] was < 0.01 µg/mL.
For `Cc1ccn2c(C(=O)NCc3ccc(Oc4ccc(F)cc4)cc3)c(C)nc2c1` [Compound 18], the MIC in data set [8] was < 5 nM; in [1], < 0.01 µg/mL; in [2], < 0.01 µg/mL; in data set [3], 0.03 µM to 0.8 µM and 0.01 µg/mL to 0.3 µg/mL; in data set [4], < 0.01 µg/mL; in data set [5], 0.31 µg/mL (≈ 0.796 µM). In addition, the MIC in data set [6] and in data set [7] was < 0.01 µg/mL in each case. For the same compound, in data set [9], the “MIC range against the clinical strains” value is <0.03 to 0.8 µM. For the same compound, the “time dependent inhibition of human CYP3A4” value in data set [10] is given as “time dependent inhibitors”.
As to `O=[N+]([O-])c1cn2c(n1)OC[C@@H](OCc1ccc(OC(F)(F)F)cc1)C2` [PA-824, reference compound], the MIC in data set [1] was 0.5 µM to 0.9 µM and 0.2 µg/mL to 0.3 µg/mL; in data set [2], > 5 µg/mL; in data set [3], 0.5 µM to 0.9 µM and 0.2 µg/mL to 0.3 µg/mL; in data set [4] it was 0.5 µM to 0.9 µM and 0.2 µg/mL to 0.3 µg/mL; in [5], 0.5 µM to 0.9 µM and 0.2 µg/mL to 0.3 µg/mL; in data set [6], 0.3 µg/mL (≈ 0.835 µM). Also, the MIC in data set [7] stood at 0.08 µg/mL (≈ 0.223 µM).
In the case of `Cc1ccn2c(C(=O)NCc3ncc(C(F)(F)F)cc3Cl)c(C)nc2c1` [Compound 13], the MIC in data set [1] is 0.3 µg/mL (≈ 0.784 µM); in data set [2] it was 0.3 µg/mL (≈ 0.784 µM); in [3] it was 2.5 µg/mL (≈ 6.53 µM); in [4], 0.2 µg/mL (≈ 0.523 µM); in [5], 13 µM to 26 µM and 5 µg/mL to 10 µg/mL; in [6], 0.3 µg/mL (≈ 0.784 µM). The same compound returned an MIC in data set [7] of 0.3 µg/mL (≈ 0.784 µM). Further, the clearance in data set [11] amounted to 25 mL/min/kg. This compound came in with a fraction unbound in [12] of 0.089. Also, the “% metabolized” value in data set [13] is recorded as 19%. Further, the “time dependent inhibition of human CYP3A4” value in data set [10] is reported as “time dependent inhibitors”. For the same compound, the inhibition at 10 µM in data set [14] worked out at 0%.
